Test results taken from publication PMC12587552, “A nitrogen-containing diphyllin derivative C156-P1 exhibited broad-spectrum antiviral activity against Flaviviridae viruses by preventing endosomal acidification” (Antimicrobial Agents and Chemotherapy, 2025).
pEC50: −log10 of the molar value. Where two headings read alike, the source gives them in different places.

Columns and labels:
[1] = system: YFV; assay: microbe, parasite or virus in culture; assay type: cell-based, YFV vaccine strain 17D; details: Yellow fever virus, read-out: EC50 against YFV
[2] = system: IFN-I response / TLR3; assay type: cell-based, human; details: A549 cells, DENV-2 MOI = 2, 50 nM, 12-48 hpi
Method: Fig 6 C156-P1 restricted DENV-2 release from the endosome into the cytoplasm by suppressing the ATP6V0A2 protein. (A and C) A549 cells were infected with DENV-2 (MOI = 2) and treated with C156-P1 (50 nM), and the cells were harvested at 12, 24, 36, and 48 hpi. The mRNA levels of IFNB1, IFIT1, ISG15, OAS1, and TLR3 were quantitated by RT-qPCR. (B) A549 cells were infected with DENV-2 (MOI = 2) and incubated with C156-P1 (50 nM) for 24 h, after which the cell lysates were analyzed by Western blot (left panel), and band density analysis was performed (right panel). […] The intensity of FITC staining was determined using a CytoFLEX flow cytometer (left panel), and the mean fluorescence intensity (MFI) was calculated (right panel). […] The colocalization of E and Rab7A proteins was analyzed using Pearson’s correlation coefficients with the JACoP plugin for ImageJ software. […] (F) A549 cells were treated with DMSO, C156-P1 (100 nM), or PHY34 (100 nM) for 48 h, and ATP6V0A2 mRNA levels were quantified by RT-qPCR. […] The intensity of FITC staining was determined by a flow cytometer (left panel), and the MFI was calculated (right panel). […] The DENV-2 NS3 protein was determined by Western blot. […] The levels of ATP6V0A2 mRNA, intracellular viral RNA, DENV-2 NS3 protein, and extracellular virus titer were assessed at 48 hpi. […]

[3] = system: DENV-3; assay: microbe, parasite or virus in culture; assay type: cell-based, DENV-3 clone DV3syn_4M; details: Dengue virus, read-out: EC50 against DENV-3

COc1cc2c(OCC#N)c3c(c(-c4ccc5c(c4)OCO5)c2cc1OC)C(=O)OC3 [Compound C156-P1]
pEC50 ([1]; A549, 48 h): 8.26
pEC50 ([1]; Vero, 48 h): 8.40
TLR3 mRNA expression induced by DENV-2 [2]: significantly reduced the expression of TLR3 mRNA
mRNA levels of IFNB1 and ISGs (IFIT1, ISG15, OAS1) induced by DENV-2 [2]: apparently suppressed
pEC50 ([3]; DENV3, A549, 48 h): 8.32
pEC50 ([3]; DENV3, Vero, 48 h): 8.31
